Data: patent US7163946B2 (Ligand Pharmaceuticals Incorporated, priority 2002, dated 2007)

How the values were obtained:
[1] = target: T1, human androgen receptor (hAR) (Homo sapiens, UniProt P10275); test: hAR cotransfection assay (potency ratio to hPR); assay type: cell-based; conditions: receptor-selectivity potency ratio, cotransfection assays
T1 sequence (P10275 1-920): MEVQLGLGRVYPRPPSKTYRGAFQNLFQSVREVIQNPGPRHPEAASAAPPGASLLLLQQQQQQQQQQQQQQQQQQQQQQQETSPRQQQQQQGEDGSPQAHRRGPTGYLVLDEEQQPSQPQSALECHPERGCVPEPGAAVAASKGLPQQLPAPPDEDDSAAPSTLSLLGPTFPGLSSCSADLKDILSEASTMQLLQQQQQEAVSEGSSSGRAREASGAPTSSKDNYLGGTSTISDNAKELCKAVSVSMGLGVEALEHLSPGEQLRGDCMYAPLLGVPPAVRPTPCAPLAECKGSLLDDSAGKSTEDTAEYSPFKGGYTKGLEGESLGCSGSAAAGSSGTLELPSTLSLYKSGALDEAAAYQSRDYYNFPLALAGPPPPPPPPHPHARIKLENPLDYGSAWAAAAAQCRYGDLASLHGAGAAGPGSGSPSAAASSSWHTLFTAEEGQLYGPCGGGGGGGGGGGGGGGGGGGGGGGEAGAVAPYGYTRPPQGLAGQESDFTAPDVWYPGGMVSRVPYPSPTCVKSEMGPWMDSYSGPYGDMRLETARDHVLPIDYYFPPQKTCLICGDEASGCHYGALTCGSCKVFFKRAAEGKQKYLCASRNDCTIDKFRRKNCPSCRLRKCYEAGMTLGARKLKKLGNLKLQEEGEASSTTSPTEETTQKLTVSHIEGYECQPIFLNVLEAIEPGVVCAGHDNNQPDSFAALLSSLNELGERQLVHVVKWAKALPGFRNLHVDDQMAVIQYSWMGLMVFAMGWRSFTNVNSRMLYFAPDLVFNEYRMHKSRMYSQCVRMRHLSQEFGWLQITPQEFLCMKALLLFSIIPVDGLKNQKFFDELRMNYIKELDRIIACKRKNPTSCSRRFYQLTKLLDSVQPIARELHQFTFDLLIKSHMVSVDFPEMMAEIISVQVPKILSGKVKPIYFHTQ
Description: Antagonist efficacy was determined as a function (%) of maximal inhibition of a reference agonist at EC50 concentration. All the cotransfection experiments were carried out in 96-well plates by automation (Beckman Biomomek automated workstation).

[2] = system: immature rabbits; test: McPhail (Clauberg) rabbit assay of progestational activity; assay type: in vivo; conditions: Oryctolagus cuniculus; estradiol-primed immature rabbits; glandular changes of the uterus; read-out: potency (MAD in mg/kg), minimum active dose
Description: The superiority of the 7,9-difluoro analogue compounds of the present invention was further characterized utilizing the McPhail rabbit model according to the following illustrative Examples. The Clauberg or McPhail assay is a classic assay utilizing rabbits to measure progestational activity. […] In this assay, immature rabbits are treated initially with estradiol, which induces growth in the uterus. This is followed by a progestin, which causes a large change in the glandular content of the uterus. It is this change in the glandular component which is a measure of the progestational activity of a progestin. The measurement of these glandular changes is carried out histologically using stained sections of the uterus. The in vivo comparison between the new 7,9-difluoro compounds and analogues with substitution patterns different from 7,9-difluoro (U.S. Pat. Nos. 5,693,646 and 5,696,127) is tabulated in Tables 7 and 8. The in vivo potency of the progestins is presented as the minimum active dose (MAD).

[3] = system: ovariectomized female rats; test: Multi-endpoint adult rat model, uterus/breast tissue-selectivity; assay type: in vivo; conditions: ratio of relative efficacy to MPA in uterus verse in breast tissue at the same highest dose tested; estrone-treated ovariectomized rats, three days
Description: In this assay, advantage is taken of the fact that in the uterus, estrogens induce a proliferation and increase in the epithelial cell height and uterine wet weight, which can be antagonized by progestins. In the breast, estrogens induce a proliferation of the ductal network while progestins stimulate the growth of the lobular-alveolar end buds, which grow from the distal end of the ducts. […] Proliferating cells or inhibition of proliferating cells were quantitated either by measurements of cell height in sectioned and stained tissue samples or, in the case of the breast, immuno-histochemically labeled Brdu incorporated nuclei.

| Structure (SMILES) | hAR EC50 or IC50/hPR EC50 [1] | minimal effective dose [2] [mg/kg] | uterus/breast tissue-selectivity [3] |
| --- | --- | --- | --- |
| CC1=CC(C)(C)Nc2ccc3c(c21)C(c1ccccc1)Oc1c(F)cc(F)cc1-3 (racemic) [Compound 33, (±)-7,9-difluoro-5-phenyl-1,2-dihydro-2,2,4-trimethyl-5H-chromeno[3,4-f]quinoline] | 37 |  |  |
| CC1=CC(C)(C)Nc2ccc3c(c21)C(c1cccc(C)c1)Oc1c(F)cc(F)cc1-3 (racemic) [Compound 34, (±)-7,9-difluoro-5-(3-methylphenyl)-1,2-dihydro-2,2,4-trimethyl-5H-chromeno[3,4-f]quinoline] | 8.5 | 1 |  |
| CC1=CC(C)(C)Nc2ccc3c(c21)C(c1ccc(Cl)c(C)c1)Oc1c(F)cc(F)cc1-3 (racemic) [Compound 37, (±)-7,9-difluoro-5-(4-chloro-3-methylphenyl)-1,2-dihydro-2,2,4-trimethyl-5H-chromeno[3,4-f]quinoline] | 558 |  |  |
| CC1=CC(C)(C)Nc2ccc3c(c21)C(c1cccc(Cl)c1)Oc1c(F)cc(F)cc1-3 (racemic) [Compound 41, (±)-7,9-difluoro-5-(3-chlorophenyl)-1,2-dihydro-2,2,4-trimethyl-5H-chromeno[3,4-f]quinoline] | 252 | 0.75 |  |
| CC1=CC(C)(C)Nc2ccc3c(c21)C(c1cc2ccccc2s1)Oc1c(F)cc(F)cc1-3 (racemic) [Compound 63, (±)-7,9-difluoro-5-(benzo[b]thien-2-yl)-1,2-dihydro-2,2,4-trimethyl-5H-chromeno[3,4-f]quinoline] | 136 |  |  |
| CC#CC1Oc2c(F)cc(F)cc2-c2ccc3c(c21)C(C)=CC(C)(C)N3 (racemic) [Compound 74, (±)-7,9-difluoro-5-(1-propynyl)-1,2-dihydro-2,2,4-trimethyl-5H-chromeno[3,4-f]quinoline] | 100 |  |  |
| CC1=CC(C)(C)Nc2ccc3c(c21)/C(=C/c1ccccc1)Oc1c(F)cc(F)cc1-3 [Compound 10, 7,9-difluoro-5(Z)-benzylidene-1,2-dihydro-2,2,4-trimethyl-5H-chromeno[3,4-f]quinoline] | 320 |  |  |
| CC1=CC(C)(C)Nc2ccc3c(c21)/C(=C/c1ccncc1)Oc1c(F)cc(F)cc1-3 [Compound 14, 7,9-difluoro-5(Z)-(4-picolylidene)-1,2-dihydro-2,2,4-trimethyl-5H-chromeno[3,4-f]quinoline] | 54 |  |  |
| CC1=CC(C)(C)Nc2ccc3c(c21)/C(=C/c1cccc(F)c1)Oc1c(F)cc(F)cc1-3 [Compound 15, 7,9-difluoro-5(Z)-(3-fluorobenzylidene)-1,2-dihydro-2,2,4-trimethyl-5H-chromeno[3,4-f]quinoline] | 2 | 0.18 |  |
| CC1=CC(C)(C)Nc2ccc3c(c21)/C(=C/c1cc(F)ccc1F)Oc1c(F)cc(F)cc1-3 [Compound 17, 7,9-difluoro-5(Z)-(2,5-difluorobenzylidene)-1,2-dihydro-2,2,4-trimethyl-5H-chromeno[3,4-f]quinoline] | 622 | 0.25 | 2.7 |
| COc1ccccc1/C=C1\Oc2c(F)cc(F)cc2-c2ccc3c(c21)C(C)=CC(C)(C)N3 [Compound 18, 7,9-difluoro-5(Z)-(2-methoxybenzylidene)-1,2-dihydro-2,2,4-trimethyl-5H-chromeno[3,4-f]quinoline] | 170 | 2 |  |
| CC1=CC(C)(C)Nc2ccc3c(c21)/C(=C/c1cc(F)ccc1C)Oc1c(F)cc(F)cc1-3 [Compound 19, 7,9-difluoro-5(Z)-(2-methyl-5-fluorobenzylidene)-1,2-dihydro-2,2,4-trimethyl-5H-chromeno[3,4-f]quinoline] | >1000 | 0.1 | 3.5 |
| CC1=CC(C)(C)Nc2ccc3c(c21)/C(=C/c1ccncc1C)Oc1c(F)cc(F)cc1-3 [Compound 20, 7,9-difluoro-5(Z)-(3-methyl-4-picolylidene)-1,2-dihydro-2,2,4-trimethyl-5H-chromeno[3,4-f]quinoline] | 8 | 0.25 |  |
| COc1ccc(F)cc1/C=C1\Oc2c(F)cc(F)cc2-c2ccc3c(c21)C(C)=CC(C)(C)N3 [Compound 26, 7,9-difluoro-5(Z)-(2-methoxy-5-fluorobenzylidene)-1,2-dihydro-2,2,4-trimethyl-5H-chromeno[3,4-f]quinoline] | 742 | 2 |  |
| CC1=CC(C)(C)Nc2ccc3c(c21)/C(=C/Br)Oc1c(F)cc(F)cc1-3 [Compound 29, 7,9-difluoro-5(Z)-bromomethylidene-1,2-dihydro-2,2,4-trimethyl-5H-chromeno[3,4-f]quinoline] | 6 |  |  |
| CC1=CC(C)(C)Nc2ccc3c(c21)/C(=C/c1ccsc1)Oc1c(F)cc(F)cc1-3 [Compound 30, 7,9-difluoro-5(Z)-(3-thienylmethylidene)-1,2-dihydro-2,2,4-trimethyl-5H-chromeno[3,4-f]quinoline] | 377 |  |  |
| CC1=CC(C)(C)Nc2ccc3c(c21)/C(=C/c1cccs1)Oc1c(F)cc(F)cc1-3 [Compound 31, 7,9-difluoro-5(Z)-(2-thienylmethylidene)-1,2-dihydro-2,2,4-trimethyl-5H-chromeno[3,4-f]quinoline] | 517 |  | 3.5 |
